Results reported in the supplement of paper PMC13380429.
± gives the standard deviation of the averaged measurements.

Assays:
Conditions in all cases: 72 h
Caco-2 [1] = assay: relative viability EC50 (midpoint between 100% and the lowest measured viability); higher = less toxic
U2OS [2] = assay: as above
Calu-3 [3] = assay: as above
Vero E6 [4] = assay: as above
HepG2 [5] = assay: as above
Caco-2 [6] = assay: drug sensitivity score (DSS) for viability; higher = more toxic; extreme values may be limits of the assay
U2OS [7] = assay: as above
Calu-3 [8] = assay: as above
Vero E6 [9] = assay: as above
HepG2 [10] = assay: as above
Caco-2 [11] = assay: cell viability relative to DMSO; higher = less toxic
U2OS [12] = assay: as above
Calu-3 [13] = assay: as above
Vero E6 [14] = assay: as above
HepG2 [15] = assay: as above

SMILES | relative viability EC50 (Caco-2 [1]) [µM] | relative viability EC50 (U2OS [2]) [µM] | relative viability EC50 (Calu-3 [3]) [µM] | relative viability EC50 (Vero E6 [4]) [µM] | relative viability EC50 (HepG2 [5]) [µM] | drug sensitivity score (Caco-2 [6]) | drug sensitivity score (U2OS [7]) | drug sensitivity score (Calu-3 [8]) | drug sensitivity score (Vero E6 [9]) | drug sensitivity score (HepG2 [10]) | cell viability (Caco-2 [11]; 1 nM) [%] | cell viability (Caco-2 [11]; 10 nM) [%] | cell viability (Caco-2 [11]; 100 nM) [%] | cell viability (Caco-2 [11]; 1000 nM) [%] | cell viability (Caco-2 [11]; 10000 nM) [%] | cell viability (U2OS [12]; 1 nM) [%] | cell viability (U2OS [12]; 10 nM) [%] | cell viability (U2OS [12]; 100 nM) [%] | cell viability (U2OS [12]; 1000 nM) [%] | cell viability (U2OS [12]; 10000 nM) [%] | cell viability (Calu-3 [13]; 1 nM) [%] | cell viability (Calu-3 [13]; 10 nM) [%] | cell viability (Calu-3 [13]; 100 nM) [%] | cell viability (Calu-3 [13]; 1000 nM) [%] | cell viability (Calu-3 [13]; 10000 nM) [%] | cell viability (Vero E6 [14]; 1 nM) [%] | cell viability (Vero E6 [14]; 10 nM) [%] | cell viability (Vero E6 [14]; 100 nM) [%] | cell viability (Vero E6 [14]; 1000 nM) [%] | cell viability (Vero E6 [14]; 10000 nM) [%] | cell viability (HepG2 [15]; 1 nM) [%] | cell viability (HepG2 [15]; 10 nM) [%] | cell viability (HepG2 [15]; 100 nM) [%] | cell viability (HepG2 [15]; 1000 nM) [%] | cell viability (HepG2 [15]; 10000 nM) [%]
CC(C)(S)C(N)C(=O)O (stereo in doubt) [penicillamine-(racemic)] | > 10 | > 10 | > 10 | > 10 | > 10 | 0 | 0 | 0 | 0 | 0 | 105 ± 1.9 | 98 ± 0.42 | 96 ± 3.5 | 93.7 ± 4.4 | 98.55 ± 0.35 | 103 ± 1.8 | 97.4 ± 2.1 | 100.2 ± 0.35 | 98.5 ± 6.2 | 101 ± 1.1 | 95.7 ± 11 | 94.9 ± 13 | 98.3 ± 5 | 106 ± 3.7 | 108 ± 3.2 | 104 ± 6.7 | 102 ± 5.4 | 102 ± 2.6 | 99.9 ± 7.1 | 101 ± 3.6 | 103 | 106 | 110 | 95 | 100
NCCOB(c1ccccc1)c1ccccc1 [2-APB] | > 10 | > 10 | > 10 | > 10 | > 10 | 0 | 0 | 0 | 0 | 0 | 91 | 93.3 | 98.5 | 94.3 | 104 | 96 | 95.6 | 100 | 100 | 104 | 101 | 96.3 | 99.1 | 105 | 103 | 110 | 108 | 97.4 | 101 | 105 | 96.8 | 112 | 91.2 | 93.4 | 92.1
O=C(O)CNC(=O)c1ccccc1I [2-iodohippuric-acid] | > 10 | > 10 | > 10 | > 10 | > 10 | 0 | 0 | 0 | 0 | 0 | 103 | 103 | 93.1 | 96.4 | 105 | 100 | 97.6 | 97.8 | 96.7 | 102 | 101 | 106 | 91.7 | 104 | 91.7 | 109 | 107 | 99.1 | 102 | 97.8 | 101 | 100 | 97.3 | 101 | 91.3
CCCCCCCCCCC(CO)CCCCCCCC (stereo not given) [2-octyldodecan-1-ol] | > 10 | > 10 | > 10 | > 10 | > 10 | 0 | 0 | 0 | 0 | 0 | 96.1 | 103 | 98.9 | 93.1 | 98.2 | 96.6 | 98 | 97.3 | 101 | 95.9 | 98.5 | 88.2 | 98.2 | 100 | 102 | 98.4 | 97.3 | 97.4 | 93.5 | 99.7 | 96.8 | 95.8 | 102 | 102 | 98.3
OCCCNc1ccccc1 [3-anilinopropan-1-ol] | > 10 | > 10 | > 10 | > 10 | > 10 | 0 | 0 | 0 | 0 | 0 | 101 | 91.8 | 93.7 | 93.3 | 95.3 | 99.6 | 106 | 97.8 | 102 | 98.7 | 106 | 104 | 99.6 | 97 | 115 | 100 | 96.1 | 107 | 94.4 | 97.9 | 103 | 101 | 95.6 | 103 | 94.9
O=C(O)CCCc1c[nH]c2ccccc12 [3-indolebutyric-acid] | > 10 | > 10 | > 10 | > 10 | > 10 | 1.2 | 0 | 0 | 0 | 0 | 99.4 | 88.5 | 89.6 | 92.5 | 91.7 | 102 | 102 | 101 | 95 | 99.9 | 99.6 | 100 | 97.7 | 100 | 99.3 | 102 | 101 | 101 | 97.2 | 94.2 | 98.3 | 99.4 | 92.8 | 87.9 | 101
CC(=O)N1CC[N+](C)(C)CC1 [4-acetyl-1,1-dimethylpiperazinium] | > 10 | > 10 | > 10 | > 10 | > 10 | 0 | 0 | 0 | 0 | 0 | 100 | 100 | 98.7 | 98.2 | 97.9 | 101 | 100 | 97.5 | 102 | 95 | 102 | 101 | 97 | 102 | 88.6 | 100 | 111 | 106 | 96.8 | 101 | 93.6 | 109 | 111 | 97.9 | 91.2
CCCc1ccc(C(=O)O)cc1 [4-propylbenzoic-acid] | > 10 | > 10 | > 10 | > 10 | > 10 | 0 | 0 | 0 | 0 | 0 | 96.6 | 96.4 | 105 | 89.7 | 106 | 98.5 | 94.9 | 99.8 | 98.9 | 102 | 106 | 106 | 101 | 96.4 | 97.2 | 93.2 | 97.4 | 91.9 | 92.2 | 103 | 106 | 106 | 93.7 | 104 | 98.3
CCCN(CCC)[C@H]1CCc2cccc(O)c2C1 [8-hydroxy-DPAT] | > 10 | > 10 | > 10 | > 10 | > 10 | 0 | 0 | 0 | 0 | 0 | 101 | 101 | 98 | 98.8 | 101 | 96.9 | 98 | 99.1 | 102 | 99.9 | 99.2 | 105 | 97.4 | 101 | 102 | 97 | 94.5 | 99.2 | 89.3 | 104 | 102 | 102 | 93.6 | 109 | 92.2
NCCCCCCCCCCNS(=O)(=O)c1cccc2c(Cl)cccc12 [A-7] | > 10 | > 10 | > 10 | > 10 | > 10 | 0 | 0 | 0 | 0 | 0 | 108 | 95.5 | 107 | 99.7 | 97.3 | 99.2 | 106 | 97.4 | 99.8 | 93.9 | 97.8 | 98.8 | 96.5 | 95.9 | 95.1 | 97.3 | 98.4 | 95.2 | 101 | 94.7 | 112 | 102 | 98.6 | 108 | 95.8
N[C@@H]1CCN(c2cccnc2)C1 [ABT-202] | > 10 | > 10 | > 10 | > 10 | > 10 | 0 | 0 | 0 | 0 | 0 | 101 | 102 | 96 | 95.7 | 106 | 96.1 | 98.8 | 96.1 | 102 | 103 | 93.1 | 90.3 | 99.8 | 97.5 | 99.3 | 102 | 97.4 | 104 | 94.5 | 108 | 97.8 | 99 | 104 | 105 | 109
O=C1COc2c(CCNCCN(C(=O)CCNCCc3ccc(Cl)c(Cl)c3)C3CCCCC3)ccc(O)c2N1 [AZ505] | > 10 | > 10 | > 10 | > 10 | > 10 | 0 | 0 | 0 | 0 | 0 | 104 | 98.4 | 95.8 | 97.8 | 97.9 | 102 | 101 | 99.2 | 103 | 91.2 | 88.2 | 89.6 | 108 | 102 | 105 | 107 | 99.4 | 104 | 99.7 | 109 | 95.9 | 98.6 | 118 | 97.2 | 89.4
CN(CCc1ccc(Cl)c(Cl)c1)CCN1CCCC1 [BD-1008] | > 10 | > 10 | > 10 | > 10 | > 10 | 0 | 0 | 0 | 0 | 0 | 101 | 96.7 | 95.5 | 93.8 | 94.2 | 97.4 | 96.5 | 97 | 93.2 | 93.3 | 95.8 | 98.5 | 94.6 | 96.9 | 101 | 100 | 96.2 | 94.2 | 95 | 106 | 91.5 | 107 | 104 | 117 | 106
O=C(O)c1cc2ccccc2s1 [BL-5583] | > 10 | > 10 | > 10 | > 10 | > 10 | 0 | 0 | 0 | 0 | 0 | 97.7 | 107 | 102 | 102 | 100 | 103 | 105 | 100 | 100 | 98 | 98 | 106 | 106 | 98.7 | 141 | 102 | 95.7 | 97.5 | 101 | 93 | 112 | 109 | 97.4 | 98.8 | 110
CNC(=O)c1ccc2c(c1)S(=O)(=O)c1ccccc1C2=O [BW-616U] | > 10 | > 10 | > 10 | > 10 | > 10 | 0 | 0 | 0 | 0 | 0 | 96.6 | 108 | 111 | 92.4 | 99.4 | 99.1 | 95 | 100 | 99.4 | 98.9 | 115 | 104 | 102 | 100 | 96.7 | 95.2 | 95.9 | 98.1 | 109 | 106 | 109 | 106 | 92.7 | 110 | 104
